Consider four molecules from patent publication US20240182475A1 (Université de Lausanne, priority 2021, published 2024).

For data set [1], the target named is T1, recombinant human CSE (hCSE) (Homo sapiens, UniProt P32929).
T1 construct: purchased ProteoGenix, France
Description: High-throughput screening pyruvate assay for CSE activators. It counts as biochemical. To be noted: 5 μM; % of pyruvate generated over hCSE alone. The method, then:
The chemical reactions involved in the 2 step assay are depicted. In (a) recombinant human CSE (hCSE) is incubated with L-cysteine, generating H2S and pyruvate. In (b) pyruvate is oxidized by pyruvate oxidase (PDX) to generate acetate, carbon dioxide (CO2) and hydrogen peroxide (H2O2). H2O2 then reacts with Amplex Red in a 1:1 stoichiometry to form the red fluorescent product, resorufin. (c) hCSE-dependent pyruvate measurement without enzyme (no pyruvate production), with the specific CSE inhibitor AVG 5 μM (inhibition of pyruvate production) and with the CSE activator calmodulin 5 μM (increased pyruvate production). Results were expressed as the % of pyruvate generated over hCSE alone. (d) Chemical structure of the new small molecule CSE activator SU004. (e) CSE-dependent pyruvate upon incubation of hCSE with L-cysteine and with increasing concentration of SU004. The ability of SU004 to activate hCSE was calculated as % of normalized activity.
We therefore hypothesized that potential CSE activators could counter these effects and be of therapeutic value in musculoskeletal HC. We set up a screening assay with human recombinant CSE (hCSE) and L-Cysteine as substrate, using as read-out the production of pyruvate as a surrogate of H2S production. As expected, pyruvate was detected only in presence of hCSE. […]

Data set [2] concerns MOVAS cells. Description: MOVAS cell calcification assay (Alizarin red). It counts as cell-based, mouse. To be noted: Mus musculus, MOVAS; at 20 uM; read-out: Calcification assay Max calcification inhibition (%) at the indicated dose of compound. The protocol:
A) Alizarin red staining of MOVAS cells stimulated with sCPP for 24 h in DMEM+10% FBS and treated or not with 50 uM of compounds. […] Statistical analysis was determined using one-way ANOVA with ***p<0.001. C) Percentage of cytotoxicity (LDH %) in MOVAS treated or not with compounds for 24 h. D) MOVAS cells were seeded onto half-area 96-well plate and incubated overnight. Then C5 or C6 at 50 uM or vehicle (DMSO), L-cysteine at 10 mM, PLP at 5 uM and the H2S sensitive fluorescent probe AzMC at 10 μM were added. The fluorescence was immediately measured in kinetic mode for 2 h at 37° C. with SpectraMax M5 reader, with excitation and emission wavelengths of 365 nm and 450 nm, respectively.
A) Alizarin red staining of Movas cells stimulated with sCPP for 24 h in DMEM+10% FBS and treated or not with 50 uM of Z20. […] C) Percentage of cytotoxicity (LDH %) in murine chondrocytes treated or not with Z20 for 24 h. Statistical analysis was determined using one-way ANOVA with ***p<0.001.
Alizarin red staining of MOVAS cells stimulated with sCPP for 24 h in DMEM+10% FBS and treated or not with different concentrations of compounds (A: C6) and (B: Z20). The graphs show Alizarin red absorbance at 570-630 nm. Statistical analysis was determined using one-way ANOVA with *p<0.05, **p<0.01, ***p<0.001.
CPP were generated by preparing 20 ml DMEM containing 10% FBS, 1 mmol/L CaCl2, 3.5 mmol/L inorganic phosphate (1.36 mmol/L NaH2PO4 and 2.14 mmol/L Na2HPO4) (Aghagolzadeh et al. Atherosclerosis, 2016). After 7 days incubation at 37° C., the suspension was centrifuged at 25000 g for 2 h at 4° C., and the pellet containing CPP was resuspended in 1 ml DMEM and stored at −20° C. until further use.
Mouse vascular smooth muscle cell line (MOVAS) cells were cultured according to the manufacturer's guidelines in DMEM culture medium supplemented with 10% FBS. Cells were cultured at 37° C. in a humidified atmosphere with 5% CO2. All cell culture experiments in 96-well plates were performed in triplicates and were repeated independently two times.
For calcification experiments, cells were seeded in 96-well plates at a density of 50,000 cells/well and left to attach for 18 h. Calcification of cell monolayers was induced by CPP (equivalent to 50 μg Ca/mL) for 24 h at 37° C., 5% CO2 in presence of various concentrations of compounds (all in final 0.1% DMSO), or of 0.1% DMSO as a control, to reach a final volume of 200 μl/well. Calcium deposition was assessed by 0.5% w/v Alizarin Red staining (pH 4.2). Briefly, after PBS washing, methanol fixation for 10 min at 4° C., and milli-Q water washing, cells were incubated for 60 min with 200 μL Alizarin Red solution and then washed four times with milli-Q water. Quantification was performed after crystal dissolution with cetylpyridinium chloride (10%) for 18 h. The absorbance was measured at 570 and 630 nm using the Spectramax M5e reader (Molecular Devices). The background (alizarin red staining obtained with cells in the absence of CPP) was subtracted from all values.

Data set [3] has as its system MOVAS cells. Description: Cytotoxicity assay, LDH release. It counts as cell-based, mouse. The conditions noted are these: at 20 uM. The protocol: A) Alizarin red staining of MOVAS cells stimulated with CPP for 24 h in DMEM+10% FBS in presence of different concentrations of compound 22401. […] The background (Alizarin red staining obtained with cells in the absence of CPP) was subtracted from all values. B) Percentage of cytotoxicity, as measured by LDH release, in MOVAS cells in the same conditions as A). Statistical analysis was determined using one-way ANOVA with *p<0.05, **p<0.01, ***p<0.001.
Measurement of lactate dehydrogenase (LDH) as a means of cytotoxicity assay was performed with using CytoTox-ONE Homogeneous Membrane Integrity Assay (Promega) according to the manufacturer's instructions. Values were calculated as percentage of cytotoxicity using the following formula: [(value in sample)−(background)]/[(value in Triton X-100-treated sample)−(background)]×100.
(LDH leaks from cells whose membrane has failed.)

Another data set has as its target recombinant human CSE (Homo sapiens, UniProt P32929). Description: CSE activity (AzMC probe assay), H2S production by recombinant human CSE. It counts as biochemical. The protocol:
The activity of recombinant human CSE (rCSE) was tested in the presence of C5, compound 8 (50 uM), Z20 compound 13 (50 uM) or vehicle (DMSO). Briefly, compounds were added in reaction buffer (50 mM Tris-HCl, pH 8) containing 2 μg of rCSE, 10 mM CSE substrate L-cysteine, 5 uM pyridoxal 5′-phosphate (PLP). After addition of 10 μM of the H2S sensitive fluorescent probe 7-azido-4-methylcoumarin (AzMC) in a total volume of 100 μl, fluorescence was immediately measured in kinetic mode for 2 h at 37° C. with SpectraMax M5 reader, with excitation and emission wavelengths of 365 nm and 450 nm, respectively. Statistical analysis was determined using simple linear regression with p<0.0001 for C5 vs. vehicle and p<0.0002 for Z20 vs. vehicle.
Recombinant human CSE (1 μg/well) was incubated with various concentrations of compounds (all in final 0.1% DMSO), or with 0.1% DMSO as a control, in 10 mM sodium phosphate buffer pH 8.2. Next, 10 mM L-cysteine and 1 mM PLP and 10 μM of the probe AzMC were then added to reach 100 μL total volume. Fluorescence was measured for 3 h at 37° C. with excitation and emission wavelengths of 365 nm and 450 nm, respectively, in a 96-well half area black plate with transparent bottom.
Dose-response curve of each compound was performed, using triplicate wells for each tested doses. The background (10 mM sodium phosphate buffer with L-cysteine, PLP and AzMC) was subtracted from all values. Each mean value was converted to percent activity (0% defined as the smallest mean in each data set, 100% defined as the highest mean in each data set). The data were normalized using the four parameter logistic model (4PL) equation to calculate EC50 using GraphPad Prism.

In data set [4] the test system is WT murine primary chondrocytes. Description: Murine primary chondrocyte calcification (Alizarin red). The conditions noted are these: WT chondrocytes incubated with 100 μM or 25 μM. The data set is classed as cell-based, mouse. The method, then:
(a) WT and Cse-deficient chondrocytes were incubated with a CSE activator (SU004, 50 μM) previously identified by high-through put screen, or with the equivalent volume of DMSO (0.1%) for 24 hours in calcification medium. STS 25 mM was used as a positive control for calcification inhibition. Calcium-containing crystals were stained with Alizarin red and quantified. (b) Cytotoxicity was assessed by LDH measurement and expressed as % over 100% cytotoxicity. (c) IL-6 secretion was measured by ELISA in supernatant of WT chondrocytes incubated with SU004 50 μM or STS 25 mM for 24 hours in calcification medium. (d) Primary human chondrocytes from 3 OA patients (P1, P2, P3) were incubated with SU004 50 μM, or with the equivalent volume of DMSO (0.1%) for 24 hours in calcification medium. Calcium-containing crystals were stained with Alizarin red and quantified. (e) Cytotoxicity was assessed by LDH measurement and expressed as % over 100% cytotoxicity. (f) IL-6 secretion was measured by ELISA in supernatant of human chondrocytes incubated for 24 hours with SU004 50 μM in calcification medium. *p<0.05, ** p<0.01, ****p<0.0001.
Primary murine chondrocytes were stimulated with secondary calciprotein particles (sCPP) for 24 h in DMEM+10% FBS in presence of C5 or C6 at 50 uM or vehicle (DMSO). Mineralization was analyzed by Alizarin red staining of the cells (A) and quantified (B). Statistical analysis was determined using one-way ANOVA with **p<0.01 and ***p<0.001.
Chondrocytes were isolated from 6 days old mice (Cse KO, Cse tg, Cbs KO and corresponding WT mice) as described previously (Nasi, So, et al. 2016). Tenocytes were isolated from 6 to 8 weeks old mice (Cse KO and WT) and by double digestion in Collagenase IV NB standard grade (Witec AG). […]
After incubation in calcification media, supernatant was collected for ELISA and LDH measurement, and cell monolayer was washed in PBS, fixed in 10% formol and crystal deposition analyzed through Alizarin red staining and quantified as previously described

T1 sequence (P32929 whole entry): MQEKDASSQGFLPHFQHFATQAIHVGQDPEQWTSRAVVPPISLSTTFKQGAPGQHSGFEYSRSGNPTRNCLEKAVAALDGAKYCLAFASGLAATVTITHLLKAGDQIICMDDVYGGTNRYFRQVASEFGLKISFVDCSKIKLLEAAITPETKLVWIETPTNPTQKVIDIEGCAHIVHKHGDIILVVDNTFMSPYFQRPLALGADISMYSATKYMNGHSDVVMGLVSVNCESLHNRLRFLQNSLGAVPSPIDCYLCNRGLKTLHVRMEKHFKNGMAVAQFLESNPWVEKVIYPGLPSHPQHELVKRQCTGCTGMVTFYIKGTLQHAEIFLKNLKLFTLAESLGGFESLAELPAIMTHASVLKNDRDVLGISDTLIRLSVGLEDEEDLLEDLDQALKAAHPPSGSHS
Chain of recombinant human CSE (P32929 whole entry): as above

Take `NCCO/C=C/C(N)C(=O)O` (stereo not shown) [AVG]: the hCSE-dependent pyruvate production entry in data set [1] is “almost complete inhibition”.

Take `CCn1cnc2c(Nc3cnn(CCOC)c3)ncnc21` [Compound 47, 9-ethyl-N-(1-(2-methoxyethyl)-1H-pyrazol-4-yl)-9H-purin-6-amine]: the inhibition at 20 µM in the data set on MOVAS cells [2] came to 37%. In addition, the “Cytotoxicity assay LDH release (% of cytotoxicity)” value with MOVAS cells [3] was 25% at. Besides, the “CSE activity (AZMC probe assay) % of activation” value on recombinant human CSE ((RFU compound max - RFU compound 0/RFU CSE 2 ug - RFU compound 0)*100) is recorded as 106%. Also, the concentration for a half-maximal effect (EC50) on recombinant human CSE (EC50 calculated by the four-parameter logistic model) was 38.9 nM.

Regarding `N[C@@H](CCS)C(=O)O` [homocysteine, reference compound], the Calcification entry in data set [4] was “significantly decreased”.

For the molecule calmodulin, the hCSE-dependent pyruvate production entry in data set [1] is listed as “pyruvate up-modulation”.

What is called inhibition is how much of the control response was suppressed. Usually EC50 stands for the concentration that produces a half-maximal response.
